{
  "source": "patent US5332733A",
  "about": "“Heterocyclically substituted piperazinoakylbenzoxazine and piperazinoalkylbenzothiazine compounds, processes for preparing them, and medicaments containing them” (Kali-Chemie Pharma GmbH, priority 1990, dated 1994)",
  "data": [
    {"biological_target": "T1, 5-lipoxygenase (Mus musculus, UniProt P48999)", "T1 construct": "A cell suspension containing peritoneal cells from male mice 8-10 weeks old was obtained in a known manner; endogenous in cells; host or cells: mouse peritoneal macrophages (primary, adherent)", "T1 sequence (P48999 1-674)": "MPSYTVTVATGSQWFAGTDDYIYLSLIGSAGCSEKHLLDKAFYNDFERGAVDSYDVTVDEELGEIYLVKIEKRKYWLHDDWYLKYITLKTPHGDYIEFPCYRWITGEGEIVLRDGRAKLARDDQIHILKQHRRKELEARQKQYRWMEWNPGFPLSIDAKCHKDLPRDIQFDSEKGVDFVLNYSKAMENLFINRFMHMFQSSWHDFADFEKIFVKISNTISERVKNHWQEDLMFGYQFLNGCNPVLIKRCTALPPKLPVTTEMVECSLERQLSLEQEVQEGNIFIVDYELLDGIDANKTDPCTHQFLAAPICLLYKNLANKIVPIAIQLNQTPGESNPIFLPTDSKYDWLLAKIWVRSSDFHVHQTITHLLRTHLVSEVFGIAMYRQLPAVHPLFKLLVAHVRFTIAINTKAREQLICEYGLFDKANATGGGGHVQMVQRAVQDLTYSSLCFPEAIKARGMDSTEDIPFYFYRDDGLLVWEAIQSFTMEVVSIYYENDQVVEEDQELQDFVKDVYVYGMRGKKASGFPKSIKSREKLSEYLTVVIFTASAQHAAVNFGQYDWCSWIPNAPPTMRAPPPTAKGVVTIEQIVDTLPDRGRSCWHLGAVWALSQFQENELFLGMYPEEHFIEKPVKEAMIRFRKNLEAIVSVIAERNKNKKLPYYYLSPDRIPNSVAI", "test": "In vitro 5-lipoxygenase inhibition, release of LTC4 from zymosan-stimulated peritoneal macrophages", "assay_type": "cell-based", "settings": "zymosan-stimulated mouse peritoneal macrophage cells, 10^-5 mole/l", "excerpt": "5. In Vitro Determination of Cyclooxygenase Inhibition And 5-lipoxygenase Inhibition.\nAfter a cell is activated, arachidonic acid contained in cell membranes is metabolized in two ways. Leucotrienes, inter alia leucotriene C4, are formed due to the action of the enzyme 5-lipoxygenase (=5-LO), and prostanoids are formed due to the action of the enzyme cyclooxygenase (=CO). In in vitro systems these metabolites are secreted from the cell.\nTo evaluate the cyclooxygenase-inhibiting and 5-lipoxygenase-inhibiting properties of the test substances, their inhibitory activity on the biosynthesis of the arachidonic acid derivatives leucotriene C4 (=LTC4) and 6-keto-prostaglandin F1α (=6-keto-PGF1α) was determined in vitro on mouse peritoneal macrophage cells. For this purpose the LTC4 and 6-keto-PGF1α contents of a mouse peritoneal macrophage cell culture medium were determined by zymosan stimulation as described by Scott et al. (J. Exp. Med. 152 (1980), 324-335) and by Fradin et al., (Prostaglandins, 33 (1987), 579-589).\nA cell suspension containing peritoneal cells from male mice 8-10 weeks old was obtained in a known manner. A solution marketed under the designation RPMI 1640 (Manufactured by Gibco) was used as the cell culture medium, to which heparin (10 international units/ml) and antibiotics were added according to the procedure of Bonney et al. (Biochem. J. 176 (1978) 422-433). The cell suspension was adjusted to a cell concentration of 10^6 cells per ml and distributed uniformly on titer dishes containing 24 1-ml titer cells (wells). These were kept for two hours in a humidified incubator filled with air enriched with 7% CO2. Cells not adhering to the titer well walls were then removed by washing. The remaining macrophage cells adhering to the walls were incubated for about 12 hours in a suspension medium to which 0.1% of bovine serum albumin (BSA=Bovine Serum Albumin) was added. The suspension medium was then replaced by a Hanks salt solution (=Hanks Balanced Salt Solution=HBSS) with 10 mmoles of HEPES (=hydroxyethylpiperazinoethanesulfonic acid) to which a 0.1% strength solution of the test substances in aqueous, 1% strength dimethylformamide or only the solvent had been added. After 15 minutes the arachidonic acid metabolism was stimulated by adding […] of zymosan (=glycoprotein mixture isolated from cell walls of beer yeast, Saccharomyces cerevisiae, Manufactured by Sigma Chemical Co., Munich) per titre cell. After 2 hours samples of the respective supernatant liquid in each cell were examined for their 6-keto-PGF1α and LTC4 contents by an enzyme immunoassay (=EIA). This EIA is carried out following the method of Pradelles et al. (Analytical Chem. 57 (1985), 1170-1173). The determination of LTC4 and the determination of 6-keto-PGF1α were each carried out on suitable dilutions of the samples (1:50 to 1:250 for the LTC4 determination and 1:250 to 1:1,250 for the 6-keto-PGF1α determination) in comparison with a comparative scale. To determine the inhibiting effect of a 10^-5 molar concentration of the compounds, the amounts of reference eicosanoid were determined, and the inhibiting effect was calculated therefrom in % inhibition compared to the measurements of the zymosan controls.", "units": {"% inhibition upon release of LTC4": "%"}, "values": [
      {"smiles": "Cc1ccnc(N2CCN(CCCC3Oc4ccccc4NC3=O)CC2)c1", "note": "(centres unmarked) [Example 9]", "% inhibition upon release of LTC4": 65},
      {"smiles": "Cc1ccnc(N2CCN(CCCCC3Sc4ccccc4NC3=O)CC2)c1", "note": "(centres unmarked) [Example 1, 2-{4-[4-(4-methylpyridin-2-yl)-piperazin-1-yl]butyl}-2H-1,4-benzothiazine-3(4H)-one]", "% inhibition upon release of LTC4": 48},
      {"smiles": "Cc1ccnc(N2CCN(CCCCC3Oc4ccccc4NC3=O)CC2)c1", "note": "(centres unmarked) [Example 7]", "% inhibition upon release of LTC4": 46},
      {"smiles": "O=C1Nc2ccccc2SC1CCCN1CCN(c2ccc(Cl)cn2)CC1", "note": "(centres unmarked) [Example 15]", "% inhibition upon release of LTC4": 9},
      {"smiles": "Cc1ccnc(N2CCN(CCCC3Sc4ccccc4NC3=S)CC2)c1", "note": "(centres unmarked) [Example 11]", "% inhibition upon release of LTC4": 42}
    ]}
  ]
}
